Experiment [1] concerns CHO cells for expression of recombinant human FSH. Nature of the experiment: Sialic acid content (HPLC peak area) of recombinant human FSH from cells cultured in supplemented medium. The experiment is classed as cell-based, Chinese hamster. Particulars: for relative value of sialic acid peak area of recombinant human FSH (basic medium = 100%): basic medium added with 8 mM N-acetyl-D-mannosamine and/or 3 mM uridine, 5 days at 37° C., FIG. 9. On the procedure: The above master cells stored in liquid nitrogen were quickly thawed in 37° C. thermostatic bath, and suspended in a basic medium, the CD Opti CHO™ medium (Life Technologies Inc.) supplemented with 2 mM of GlutaMAX (Life Technologies Inc.) and 1×HT Supplement (Life Technologies Inc.). Then, the cells were precipitated by centrifugation and corrected. The corrected cells were suspended with the basic medium to obtain cell suspension, and the number of the living cells was counted. The cell suspension was diluted to the living cell density of 2×10^5 cells/mL with the basic medium.
The cell suspension was dispensed into culture vessels by 120 mL each to generate four groups and incubated for five days at 37° C. under 5% CO2. This incubation was conducted by using Bio Jr. 8 (100 mL×8 vessels culture device, AbleBiott Inc.), and pH of the medium was kept at 6.9 and the dissolved oxygen level (DO) was kept at 40% during the incubation. […]
50 μL of the concentrated solution of the purified recombinant human FSH of each of the groups was alkali-treated with 0.3M sodium hydroxide at 37° C. for 30 minutes, subsequently was acid-treated with 0.05M hydrochloric acid at 80° C. for 60 minutes to make glycans composing recombinant human FSH hydrolyzed to monosaccharides. Then, the solution were added with fluorescence reagent (a solution containing 9.6 mM of 1,2-diamino-4,5-methylene-dioxybenzene dihydrochloride, 24 mM of sodium hydrosulfite, and 1M of 2-mercaptoethanol), and heated at 50° C. for 150 minutes to fluorescently label the monosaccharides obtained by the hydrolysis. […] As a standard, sialic acid was concurrently treated with the same manner, and the standard of fluorescence-labeled sialic acid was obtained. The standard thus obtained was analyzed by HPLC using COSMOSIL 5C18-PAQ as reverse phase column, and the elution time of sialic acid, the time when the peak corresponding to sialic acid appeared, was measured. And each of the sample solutions was analyzed by HPLC and the area of peak corresponding to sialic acid was calculated. […]

The test system of experiment [2] is CHO cells for expression of recombinant human erythropoietin. Kind of experiment: Capillary electrophoresis isoform analysis of recombinant human erythropoietin from cells cultured in supplemented medium. The experiment is classed as cell-based, Chinese hamster. Conditions: basic medium added with 8 mM N-acetyl-D-mannosamine and/or 3 mM uridine, 5 days at 37° C., FIG. 3; for ratio of type I isoform to sum of all detected isoforms of recombinant human erythropoietin: type I = lowest isoelectric point. The procedure:
The above master cells stored in liquid nitrogen were quickly thawed in 37° C. thermostatic bath, and suspended in a basic medium, the CD Opti CHO™ medium (Life Technologies Inc.) supplemented with 2 mM of GlutaMAX (Life Technologies Inc.) and 1×HT Supplement (Life Technologies Inc.). Then, the cells were precipitated by centrifugation and corrected. The corrected cells were suspended with the basic medium to obtain the cell suspension, and the number of the living cells was counted. The cell suspension was diluted to the living cell density of 2×10^5 cells/mL with the basic medium.
The cell suspension was dispensed into culture vessels by 120 mL each to generate four groups and incubated for five days at 37° C. under 5% CO2. This incubation was conducted by using Bio Jr.8 (100 mL×8 vessels culture device, AbleBiott Inc.), and pH of the medium was kept at 6.9 and the dissolved oxygen level (DO) was kept at 40% during the incubation. At this time, uridine and N-acetyl-D-mannosamine were added at the concentration as shown in Table 1 to each of the groups (group 1 to group 4). The incubation was conducted four times for each of the groups.
On the fifth day of the incubation above, 10 mL of each of the cultures was corrected to centrifuging tubes and centrifuged at 3,000 rpm for 10 minutes. Then, the culture supernatants were corrected and diluted 1.5 times with purified water. Then, 7.5 mL of each of these diluted culture supernatants was loaded on Capto™ adhere column, a multi-modal anion exchange resin (column volume: 1 mL, GE Healthcare Bioscience Inc.) pre-equilibrated with 20 mM Tris buffer (pH 7.5). After washing the column with 5 column volumes of 20 mM Tris buffer (pH 7.5), recombinant human erythropoietin adsorbed by the resin was eluted with 20 mM Tris buffer (pH 7.5) containing 200 mM of NaCl to obtain eluted fractions. And the eluted fractions were concentrated by Amicon Ultra-4 Centrifugal Filter Units (molecular weight cut off: 3 kDa, Millipore Inc.) to 100 μL of volume.
The concentrated solution of each of the groups was subjected capillary electrophoresis by using Bare Fused-Silica Capillary (50 μm ID, 375 μm OD, 50 cm length, Beckmann Coulter Inc.) attached to capillary electrophoresis system (P/ACE™ system MDQ, Beckmann Coulter Inc.). In doing this, 10 mM Tris buffer (pH 4.5) containing 10 mM of sodium chloride, 500 mM of sodium acetate, 7 M of urea, and 2.5 mM of putrescine was used as an electrophoresis buffer, and the electrophoresis was performed at constant current of 24 μA for 50 minutes. Further the wave length at 214 nm was monitored by an UV detector to detect the recombinant human erythropoietin subjected to the electrophoresis.
The isoform showing the lowest isoelectric point among the isoforms showing different isoelectric points when detected by the capillary electrophoresis above was named as type I, and further the isoforms were named as type II and type III in ascending order of isoelectric point. The ratios of type I, type II, and type III to sum of all of detected isoforms were calculated, respectively. And the ratios were compared between the groups. The ratios of type I, type II, and type III in the recombinant human erythropoietin of the group 1 obtained by culturing the cells in the basic medium were about 0.7%, about 5%, and about 15%, respectively (FIG. 3).

Turning to `CC(=O)N[C@@H]1C(O)O[C@H](CO)[C@@H](O)[C@@H]1O` (stereo partly drawn) [N-acetyl-D-mannosamine], the “relative value of sialic acid peak area of recombinant human FSH (basic medium = 100%)” value in experiment [1] was “about 100%”. In experiment [2], the “ratio of type II isoform to sum of all detected isoforms of recombinant human erythropoietin” value is “about 7%”, the “ratio of type III isoform to sum of all detected isoforms of recombinant human erythropoietin” value is on record as “about 20.7%” and the “ratio of type I isoform to sum of all detected isoforms of recombinant human erythropoietin” value is “about 1.2%”.

For the molecule `O=c1ccn([C@@H]2O[C@H](CO)[C@@H](O)[C@H]2O)c(=O)[nH]1` [uridine], the “increase of average number of sialic acid molecules per molecule of recombinant human FSH versus basic medium” value in experiment [1] (basic medium added with 3 mM uridine, or with 8 mM N-acetyl-D-mannosamine and 3 mM uridine) was “about 10%”. The “relative value of sialic acid peak area of recombinant human FSH (basic medium = 100%)” value in experiment [1] is on record as “about 112%”. Also, in experiment [2], the “ratio of type II isoform to sum of all detected isoforms of recombinant human erythropoietin” value is recorded as “about 3.5%”, the “ratio of type III isoform to sum of all detected isoforms of recombinant human erythropoietin” value is “about 13%” and the “ratio of type I isoform to sum of all detected isoforms of recombinant human erythropoietin” value is listed as “about 0.3%”.

(Values after patent publication US10557115B2, “Medium containing uridine and N-acetyl-D-mannosamine” (JCR Pharmaceuticals Co., Ltd., priority 2015, dated 2020).)
